The results in this text go back to patent US20150290192A1, “INHIBITORS OF BRUTON'S TYROSINE KINASE” (HOFFMANN-LA ROCHE INC., priority 2012, published 2015).

Each structure is given as a SMILES string. Where two headings read alike, the source gives them in different places. Marks after values point to notes of the source that are not given here. Where only a bound is given, the exact number is not on record here.

In series [1] the test system is OVA sensitized and challenged mice, allergen-induced bronchoconstriction. The series can be described thus: Ovalbumin-induced allergic airway disease: allergen-induced bronchoconstriction. To be noted: Intranasal.
The test system of series [2] is human B cells (BCR activation). The series can be described thus: Human B cell antibody production after BCR activation. The format is cell-based. The note with it: Homo sapiens, B-cell, 240 h, 10 days culture, N = 3 donors. As for the experimental part:
Human total B cells were enriched with RosetteSep human B cell enrichment cocktail (#28921, Vancouver, BC) from buffy coat leukocyte packs (New York Blood Center) following manufacturer's protocol. Enriched B cell purity (around 80%) was checked by FACS with CD19+ staining. B cells were suspended (0.1 million cells/well/100 μl) in RPMI-1640 based conditional medium (50 ng/ml IL-2, 50 ng/ml IL-10, and […] anti-IgD for the activation of B cells to produce IgG/IgM; 10 ng/ml IL-4, 10 ng/ml IL-10, 25 ng/ml IL-21, and […] anti-CD40 for the activation of B cells to produce IgE) together with Compound 1 (1 nM-10 μM). Cells were cultured for 10 days (for IgG/IgM production) or 14 days (for IgE production) at 37° C. Culture supernatants were collected for IgM, IgG, and IgE analysis following Bethyl Laboratory's protocol (#E80-104, #E80-100, #E80-108, Montgomery, Tex.).

A further series can be described thus: Pharmacokinetics in dog. The format is in vivo. The note with it: for CL / clearance: 1.0 mg/kg (iv); for Oral Bioavailability / bioavailability: 1.0 (iv), 1.0 (po) mg/kg; for clearance / bioavailability: plasma; for bioavailability: 1 mg/kg.
In the next series the target is Bruton's Tyrosine Kinase (Homo sapiens, UniProt Q06187). The series can be described thus: Bruton's Tyrosine Kinase (BTK) inhibition TR-FRET competition assay. The format is binding. The note with it: for IC50: inactivated state of BTK, 18-24 h at 14° C. As for the experimental part:
This BTK competition assay measures compound potency (IC50) for the inactivated state of Bruton's Tyrosine Kinase using FRET (Firster/Fluorescence Resonance Energy Transfer) technology. The BTK-Eu complex was incubated on ice one hour prior to use at a starting concentration of 50 nM BTK-Bioease™: 10 nM Eu-streptavidin (Perkin-Elmer Catalog#AD0062). The assay buffer consisted of 20 mM HEPES (pH 7.15), 0.1 mM DTT, 10 mM MgCl2, 0.5 mg/ml BSA with 3% Kinase Stabilizer (Fremont Biosolutions, Catalog #STB-K02). After 1 h, the reaction mixture from above was diluted 10 fold in assay buffer to make 5 nM BTK: InM Eu-Streptavidin complex (donor fluorophore). 18 l of a mixture of 0.11 nM BTK-Eu and 0.11 nM Kinase Tracer 178 (Invitrogen, Catalog #PV5593,) with BTK-Eu alone as no negative control, was then dispensed into 384-well flat bottom plates (Greiner, 784076). Compounds to be tested in assay were prepared as 10× concentrations and serial dilution in half-log increments was performed in DMSO so as to generate 10 point curves. To initiate the FRET reaction, compounds prepared as 10× stock in DMSO was added to the plates and the plates were incubated 18-24 h at 14° C.
After the incubation the plates were read on a BMG Pherastar Fluorescent plate reader (or equivalent) and used to measure the emission energy from the europium donor fluorophore (620 nm emission) and the FRET (665 nm emission). The negative control well values were averaged to obtain the mean minimum. The positive “no inhibitor” control wells were averaged to obtain the mean maximum. Percent of maximal FRET was calculated using following equation:
% max FRET=100×[(FSRcmpd−FSRmean min)/(FSRmean max−FSRmean min)]
where FSR=FRET Signal ratio. % Max FRET curves were plotted in Activity Base (Excel) and the IC50(%), hill slope, z′ and % CV were determined. The mean IC50 and standard deviation will be derived from duplicate curves (singlet inhibition curves from two independent dilutions) using Microsoft Excel.
In general terms: TR-FRET usually uses a lanthanide donor and a delayed reading to cut background.

The next series concerns the target Btk kinase (Homo sapiens, UniProt Q06187). The series can be described thus: Btk Biacore binding assay. The note with it: for off rate: Biacore; for kon: read-out: Biacore Ka. A general note: In SPR one partner is held on a chip, and binding of the other changes the refractive index at the surface.
Series [3] concerns human mast cells (FCεRI activation). The series can be described thus: Human mast cell activation, mediator release after FCεRI activation. The format is cell-based. The note with it: N = 3 donors. How it is done: One million human cord blood derived CD34+ hematopoietic stem cells (HSCs) from different donors (AllCells #CB008F-S, Emeryville, Calif.) were cultured for eight weeks in a serum-free complete medium (StemPro-34 with supplements; Invitrogen, Carlsbad, Calif.), with recombinant h-SCF (100 ng/ml) and h-IL6 (50 ng/ml). During the first week of culturing, recombinant h-IL3 (10 ng/ml) was also included to support HSCs differentiation. After 8 weeks of culture, cells were stimulated with recombinant h-IL-4 (10 ng/ml) for 5 days. Confirmation of the mast cell differentiation process was routinely done by FACS to check for c-kit and FcsRI expression; differentiated cells were routinely more than 90% c-kit positive, FceRI positive. Differentiated mast cells were sensitized with […] anti-NP IgE (Serotec, Raleigh, N.C.) overnight at 37° C. Cells were washed and then treated with Compound 1 for 1 hour at 37° C. After treatment, cells were cross-linked with […] NP(30)-BSA (Biosearch Technologies, Novato Calif.) for 30 minutes (for histamine and lipid mediator assessment) or overnight (for cytokine assessment). Culture supernatants were collected and assayed for histamine (Oxford Biomedical Research, Rochester Hills, Mich.), PGD2 and LTC4 (Cayman Chemical Company, Ann Arbor Mich.), and IL-5 and IL-13 (Bio-Rad Bio-Plex Pro cytokine quantification kit) release as per kits' instructions. Compound 1, Compound 2 and Compound 3 reduced the release of these mediators into the supernatant in a concentration dependent manner up to 100% efficacy and the IC50 values are reported in Table 2.

A short description of a further series: Pharmacokinetics in rat. It is filed as in vivo. The note with it: for CL / clearance: 0.5 mg/kg (iv); for Oral Bioavailability / bioavailability: 0.5 (iv), 2 (po) mg/kg; for clearance / bioavailability: plasma; for bioavailability: 2 mg/kg.
Where [4] appears, read: delivered dose 0.3 mg/kg, deposited dose 0.3 mg/kg.
[5] abbreviates: delivered dose 1.0 mg/kg, deposited dose 1.0 mg/kg.
Where [6] appears, read: delivered dose 3.0 mg/kg, deposited dose 3.0 mg/kg.
[7] abbreviates: read-out: IC50 Histamine release.

Sequence of Btk kinase (Q06187 whole entry): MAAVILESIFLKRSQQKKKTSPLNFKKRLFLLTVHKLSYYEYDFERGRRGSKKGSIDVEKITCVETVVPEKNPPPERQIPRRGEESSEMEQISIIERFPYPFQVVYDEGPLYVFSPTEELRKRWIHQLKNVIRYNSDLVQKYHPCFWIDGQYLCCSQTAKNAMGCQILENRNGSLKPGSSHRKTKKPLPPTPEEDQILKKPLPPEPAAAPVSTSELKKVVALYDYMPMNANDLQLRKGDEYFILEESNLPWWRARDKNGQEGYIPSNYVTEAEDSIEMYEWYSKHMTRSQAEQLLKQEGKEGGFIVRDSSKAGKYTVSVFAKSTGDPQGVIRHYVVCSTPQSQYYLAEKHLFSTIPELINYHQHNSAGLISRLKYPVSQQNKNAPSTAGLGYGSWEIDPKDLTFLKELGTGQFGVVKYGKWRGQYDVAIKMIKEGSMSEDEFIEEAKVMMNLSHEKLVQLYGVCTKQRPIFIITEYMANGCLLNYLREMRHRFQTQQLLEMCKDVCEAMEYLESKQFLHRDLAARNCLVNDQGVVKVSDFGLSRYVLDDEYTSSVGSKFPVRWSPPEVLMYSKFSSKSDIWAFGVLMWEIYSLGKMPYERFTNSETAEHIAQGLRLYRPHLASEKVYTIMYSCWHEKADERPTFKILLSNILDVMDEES
Sequence of Bruton's Tyrosine Kinase (Q06187 whole entry): as above
Protocol for Btk kinase: Analyses were performed on a Biacore T-100. Btk kinase was avi-tagged and co-expressed in baculovirus with biotin ligase to generate single site biotinylated Btk (Avidity, LLC). Biotinylated target was captured on Biacore streptavidin sensor chips (Series S Sensor Chip SA) at densities of ˜10000 resonance units (1 ru˜1 pg protein/mm2). […] Compounds were injected for 100 seconds association time and dissociation was followed for 20 min.

For `COCCNCc1ccc(Nc2cc(-c3cccc(N4CCc5cc(C(C)(C)C)ccc5C4=O)c3CO)cn(C)c2=O)nc1` [Compound 3, 6-tert-Butyl-2-[2-hydroxymethyl-3-(5-{5-[(2-methoxy-ethylamino)-methyl]-pyridin-2-ylamino}-1-methyl-6-oxo-1,6-dihydro-pyridin-3-yl)-phenyl]-3,4-dihydro-2H-isoquinolin-1-one], the results for the “% reduction in airway resistance (R)” value in series [1] (setting [4]), in series [1] (setting [5]) and in series [1] (setting [6]) were 77* %, 83* % and 93* %, respectively. Moreover, the IC50 – broadly, the concentration that gives 50% inhibition – came out at 3.17 nM in series [2] (read-out: IC50 IgG production); 4.76 nM in series [2] (read-out: IC50 IgM production); 0.2 nM on Bruton's Tyrosine Kinase; 97.4 nM in series [3] (read-out: IC50 1L-13 release); 28.6 nM in series [3] (read-out: IC50 GM-CSF release); 21.7 nM in series [3] (setting [7]). Moreover, the half-inhibitory concentration (IC50) in series [3] (read-out: IC50 IL-5 release) turned out to be 86.7 nM; in series [3] (read-out: IC50 PGD2 release), 5.31 nM. The CL entry in “Pharmacokinetics in dog” (Table 9) and in “Pharmacokinetics in rat” (Table 9) was “high” in each case. In addition, the “Oral Bioavailability” value in “Pharmacokinetics in dog” (Table 9) and in “Pharmacokinetics in rat” (Table 9) was “low” in each case. Moreover, the clearance (usually a measure of how efficiently the substance is removed, as volume per time) in “Pharmacokinetics in dog” (Table 9) came out at 31.4 mL/min/kg; in “Pharmacokinetics in rat” (Table 9), 111 mL/min/kg. The bioavailability (as a rule, the share of a dose that reaches the circulation, judged against a reference dose that is usually intravenous) in “Pharmacokinetics in dog” (Table 9) amounted to 8%; in “Pharmacokinetics in rat” (Table 9), 7%. For the same molecule, the “Btk inhibitor potency (FRET)” value at Bruton's Tyrosine Kinase is given as “very potent”. Further, at Btk kinase, the Kd (usually the concentration at which binding is half-saturated) was 0.119 nM. Besides, the off rate entry at Btk kinase is given as “very slow”. Moreover, at Btk kinase, the kon is 1.07e+06 M⁻¹ s⁻¹.

For `Cn1nc(Nc2cc(-c3cccc(-n4ccc5cc(C(C)(C)C#N)cc(F)c5c4=O)c3CO)nn(C)c2=O)cc1CN1CCC1` [Compound 2, 2-(2-{3-[5-(5-Azetidin-1-ylmethyl-1-methyl-1H-pyrazol-3-ylamino)-1-methyl-6-oxo-1,6-dihydro-pyridazin-3-yl]-2-hydroxymethyl-phenyl}-8-fluoro-1-oxo-1,2-dihydro-isoquinolin-6-yl)-2-methyl-propionitrile], the figures for the “% reduction in airway resistance (R)” value in series [1] (setting [4]), in series [1] (setting [5]) and in series [1] (setting [6]) were 53%, 64* % and 105* %, respectively. Further, the IC50 in series [2] (read-out: IC50 IgG production) is 9.26 nM; in series [2] (read-out: IC50 IgM production) it was 3.28 nM; on Bruton's Tyrosine Kinase, 1.1 nM; in series [3] (read-out: IC50 1L-13 release) it was 91.9 nM; in series [3] (read-out: IC50 GM-CSF release), 26 nM; in series [3] (setting [7]), 9.6 nM. Besides, the values for the IC50 in series [3] (read-out: IC50 IL-5 release) and in series [3] (read-out: IC50 PGD2 release) were 13.2 nM and 3.09 nM, respectively. Besides, the CL entry in the series “Pharmacokinetics in dog” (Table 8) and in the series “Pharmacokinetics in rat” (Table 8) was “high” throughout. Besides, the “Oral Bioavailability” value in “Pharmacokinetics in dog” (Table 8) and in the series “Pharmacokinetics in rat” (Table 8) was “low” in each case. In addition, the results for the clearance in the series “Pharmacokinetics in dog” (Table 8) and in “Pharmacokinetics in rat” (Table 8) were 35 mL/min/kg and 84.9 mL/min/kg, respectively. The bioavailability in “Pharmacokinetics in dog” (Table 8) was 4%; in the series “Pharmacokinetics in rat” (Table 8), < 2%. In addition, the “Btk inhibitor potency (FRET)” value at Bruton's Tyrosine Kinase is given as “very potent”. At Btk kinase, the affinity, expressed as Kd, was 1.48 nM. Besides, on Btk kinase, the off rate entry is “very slow”. Besides, the kon at Btk kinase is 453000 M⁻¹ s⁻¹.
